Assay results: US6399777B2, “Inclusion complexes of aryl-heterocyclic salts” (Pfizer Inc., priority 1996, dated 2002)
Structures can show the parent of a compound that is named as a salt.

Legend:
[1] = Equilibrium solubility of ziprasidone salts in 40% (w/v) aqueous HPBCD, HPLC; format: physicochemical; details: 40% (w/v) HPBCD in water, stirred four days at ambient temperature; calculated as free base
Description: Many different experimental protocols can be envisioned and implemented. […] HPBCD was purchased commercially from Wacker Chemie.

[2] = Solubility of ziprasidone salts in water; details: weight of ziprasidone calculated as the free base
[3] = Equilibrium solubility of ziprasidone salts in 40% (w/v) aqueous SBECD, HPLC; details: in 40% SBECD; from Table 1
Description: The following protocol illustrates the protocol employed for the instant invention using 40% aqueous cyclodextrin. The same protocol was employed for other aqueous cyclodextrin concentrations such as those used to generate FIG. 1.
A 40% (w/v) solution of cyclodextrin (SBECD or HPBCD) in water was prepared by adding 200 g of cyclodextrin to a 500 ml beaker containing approximately 250 ml of deionized water and a magnetic stir bar. The contents were stirred until dissolution of the cyclodextrin in the water was complete, usually a time of about one hour being sufficient. The solution was then transferred to a 500 ml volumetric flask and deionized water was added to the mark. 5 ml of the volumetric solution was pipetted into a 10 ml glass vial with a screw cap. […] The vial contents were stirred for four days at ambient temperature to allow a sufficient time for equilibrium to be established. […] The contents were filtered into a clean screw cap vial through a Millex-GS 0.2 μm filter and the drug concentration determined by an HPLC method.
Detection can be by UV absorption at a wavelength of 229 nm. Quantification can be effected facilely by comparison of HPLC peak height (or area) with the peak height (or area) taken from a standard plot of concentration vs. peak height (or area) for standards of known concentration. […]

Row | Compound | Solubility in 40% HPBCD [1] | Solubility in water [2] | Comparison of solubility among the salt candidates and cyclodextrin solutions tested [3]
1 | O=C1Cc2cc(CCN3CCN(c4nsc5ccccc45)CC3)c(Cl)cc2N1 [hydrochloride, ziprasidone] | 2.4 μgA/ml | 80 μgA/ml | 
2 | O=C1Cc2cc(CCN3CCN(c4nsc5ccccc45)CC3)c(Cl)cc2N1 [free base, ziprasidone, reference compound] |  | 0.3 μgA/ml | 
3 | O=C1Cc2cc(CCN3CCN(c4nsc5ccccc45)CC3)c(Cl)cc2N1 [mesylate, Ziprasidone Mesylate] | 17.3 μgA/ml | 1000 μgA/ml | highest solubility
4 | O=C1Cc2cc(CCN3CCN(c4nsc5ccccc45)CC3)c(Cl)cc2N1 [aspartate, ziprasidone] | 1.3 μgA/ml |  | 
5 | O=C1Cc2cc(CCN3CCN(c4nsc5ccccc45)CC3)c(Cl)cc2N1 [besylate, ziprasidone] |  | 80 μgA/ml | 
6 | O=C1Cc2cc(CCN3CCN(c4nsc5ccccc45)CC3)c(Cl)cc2N1 [esylate, Ziprasidone Esylate] | 13.7 μgA/ml |  | 
7 | O=C1Cc2cc(CCN3CCN(c4nsc5ccccc45)CC3)c(Cl)cc2N1 [tartrate, Ziprasidone Tartrate] | 12.4 μgA/ml | 180 μgA/ml | 
